Target: T1, p53 Y220C (Homo sapiens, UniProt P04637, Y220C)
T1 construct: The recombinant protein was a truncation mutant containing only amino acids 94-312 of p53; made in house; host or cells: E. coli
Assay: In vitro DNA binding activity assay (HTRF / TR-FRET): stabilization of p53 Y220C and increase of its DNA binding activity
Assay type: biochemical
Conditions: recombinant His-tagged p53 Y220C DNA binding domain (aa 94-312), biotin-labeled consensus DNA, incubated at 27° C. or 29° C. for 60 min
Summary of the method: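 His-tagged p53 Y220C, E. coli-expressed, binding biotin-labeled consensus DNA measured by HTRF (anti-His-APC, streptavidin-europium). Compounds from 4.5 mM DMSO stocks, 3-fold serial dilutions; incubations at room temperature 15 min, then 20 min. SC150 = concentration raising DNA binding by 50%.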

T1 sequence (P04637 94-312, change not shown): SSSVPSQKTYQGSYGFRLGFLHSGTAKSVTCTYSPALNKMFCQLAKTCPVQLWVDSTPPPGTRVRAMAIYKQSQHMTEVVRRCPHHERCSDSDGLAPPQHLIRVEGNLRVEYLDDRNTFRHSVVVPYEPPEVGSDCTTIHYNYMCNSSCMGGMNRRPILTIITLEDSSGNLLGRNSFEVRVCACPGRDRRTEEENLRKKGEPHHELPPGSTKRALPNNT

Row | SC150 (concentration of the compound required to increase the DNA binding activity by 50%) | Structure (SMILES)
1 | + (+ = 0 μM ≤ SC150 < 0.05 μM) | COc1cc(S(=O)(=O)N2CCN(C(C)=O)CC2)ccc1NCC#Cc1cc2c(NC3CCN(C)CC3)cccc2n1CC(F)(F)F [Compound 479A]
2 | + (+ = 0 μM ≤ SC150 < 0.05 μM) | COc1cc(S(=O)(=O)N2CCOCC2)ccc1NCC#Cc1cc2c(NC3CCN(C)CC3)cccc2n1CC(F)(F)F [Compound 480A, 2-(3-{[2-methoxy-4-(morpholine-4-sulfonyl)phenyl]amino}prop-1-yn-1-yl)-N-(1-methylpiperidin-4-yl)-1-(2,2,2-trifluoroethyl)-1H-indol-4-amine]
3 | + (+ = 0 μM ≤ SC150 < 0.05 μM) | CNC(=O)c1ccc(NCC#Cc2cc3c(NC4CCN(C)CC4)cccc3n2CC(F)(F)F)c(OC)c1 [Compound 482A, 3-methoxy-N-methyl-4-[(3-{4-[(1-methylpiperidin-4-yl)amino]-1-(2,2,2-trifluoroethyl)-1H-indol-2-yl}prop-2-yn-1-yl)amino]benzamide]
4 | + (+ = 0 μM ≤ SC150 < 0.05 μM) | COc1cc(S(=O)(=O)N(CCO)CCO)ccc1NCC#Cc1cc2c(NC3CCN(C)CC3)cccc2n1CC(F)(F)F [Compound 483A, N,N-bis(2-hydroxyethyl)-3-methoxy-4-[(3-{4-[(1-methylpiperidin-4-yl)amino]-1-(2,2,2-trifluoroethyl)-1H-indol-2-yl}prop-2-yn-1-yl)amino]benzene-1-sulfonamide]
5 | + (+ = 0 μM ≤ SC150 < 0.05 μM) | CNS(=O)(=O)c1ccc(NCC#Cc2cc3c(NC4CCN(C)CC4)cccc3n2CC(F)(F)F)c(OC)c1 [Compound 484A, 3-methoxy-N-methyl-4-[(3-{4-[(1-methylpiperidin-4-yl)amino]-1-(2,2,2-trifluoroethyl)-1H-indol-2-yl}prop-2-yn-1-yl)amino]benzene-1-sulfonamide]
6 | + (+ = 0 μM ≤ SC150 < 0.05 μM) | COc1cc(S(=O)(=O)N2CCN(C)CC2)ccc1NCC#Cc1cc2c(NC3CCN(C)CC3)cccc2n1CC(F)(F)F [Compound 485A, 2-[3-({2-methoxy-4-[(4-methylpiperazin-1-yl)sulfonyl]phenyl}amino)prop-1-yn-1-yl]-N-(1-methylpiperidin-4-yl)-1-(2,2,2-trifluoroethyl)-1H-indol-4-amine]
7 | + (+ = 0 μM ≤ SC150 < 0.05 μM) | CN1CCC(Nc2cccc3c2cc(C#CCNc2ccc(S(C)(=O)=O)cc2O)n3CC(F)(F)F)CC1 [Compound 486A, 5-methanesulfonyl-2-[(3-{4-[(1-methylpiperidin-4-yl)amino]-1-(2,2,2-trifluoroethyl)-1H-indol-2-yl}prop-2-yn-1-yl)amino]phenol]
8 | ++ (++ = 0.05 μM ≤ SC150 < 0.1 μM) | COc1cc(NC2CCN(C)CC2)c2cc(C#CCNc3ccc(S(C)(=O)=O)cc3OC)n(CC(F)(F)F)c2c1 [Compound 487A, 2-{3-[(4-methanesulfonyl-2-methoxyphenyl)amino]prop-1-yn-1-yl}-6-methoxy-N-(1-methylpiperidin-4-yl)-1-(2,2,2-trifluoroethyl)-1H-indol-4-amine]
9 | +++ (+++ = 0.1 μM ≤ SC150 < 0.2 μM) | CN1CCC(Nc2cccc3c2cc(C#CCOc2ccc(S(C)(=O)=O)cc2N(C)C)n3CC(F)(F)F)CC1 [Compound 488A, 2-{3-[2-(dimethylamino)-4-methanesulfonylphenoxy]prop-1-yn-1-yl}-N-(1-methylpiperidin-4-yl)-1-(2,2,2-trifluoroethyl)-1H-indol-4-amine]
10 | + (+ = 0 μM ≤ SC150 < 0.05 μM) | CN1CCC(Nc2cccc3c2cc(C#CCNc2ccc(S(C)(=O)=O)cc2OCC#N)n3CC(F)(F)F)CC1 [Compound 489A, 2-{5-methanesulfonyl-2-[(3-{4-[(1-methylpiperidin-4-yl)amino]-1-(2,2,2-trifluoroethyl)-1H-indol-2-yl}prop-2-yn-1-yl)amino]phenoxy} acetonitrile]
11 | + (+ = 0 μM ≤ SC150 < 0.05 μM) | CN1CCC(Nc2cccc3c2cc(C#CCNc2ccc(S(C)(=O)=O)cc2OCF)n3CC(F)(F)F)CC1 [Compound 490A, 2-(3-{[2-(fluoromethoxy)-4-methanesulfonylphenyl]amino}prop-1-yn-1-yl)-N-(1-methylpiperidin-4-yl)-1-(2,2,2-trifluoroethyl)-1H-indol-4-amine]
12 | + (+ = 0 μM ≤ SC150 < 0.05 μM) | COc1cc(C(=O)N2CCOCC2)ccc1NCC#Cc1cc2c(NC3CCN(C)CC3)cccc2n1CC(F)(F)F [Compound 491A]
13 | + (+ = 0 μM ≤ SC150 < 0.05 μM) | COc1cc(C(=O)N2CCC(O)CC2)ccc1NCC#Cc1cc2c(NC3CCN(C)CC3)cccc2n1CC(F)(F)F [Compound 492A]
14 | + (+ = 0 μM ≤ SC150 < 0.05 μM) | COc1cncc(-c2ccc(NCC#Cc3cc4c(NC5CCN(C)CC5)cccc4n3CC(F)(F)F)c(OC)c2)c1 [Compound 494A, 2-(3-{[2-methoxy-4-(5-methoxypyridin-3-yl)phenyl]amino}prop-1-yn-1-yl)-N-(1-methylpiperidin-4-yl)-1-(2,2,2-trifluoroethyl)-1H-indol-4-amine]
15 | +++ (+++ = 0.1 μM ≤ SC150 < 0.2 μM) | COc1ccc(S(C)(=O)=O)cc1NCC#Cc1cc2c(NC3CCN(C)CC3)cccc2n1CC(F)(F)F [Compound 495A, 2-{3-[(5-methanesulfonyl-2-methoxyphenyl)amino]prop-1-yn-1-yl}-N-(1-methylpiperidin-4-yl)-1-(2,2,2-trifluoroethyl)-1H-indol-4-amine]
16 | + (+ = 0 μM ≤ SC150 < 0.05 μM) | COc1cc(C(=O)NCCO)ccc1NCC#Cc1cc2c(NC3CCN(C)CC3)cccc2n1CC(F)(F)F [Compound 496A]
17 | + (+ = 0 μM ≤ SC150 < 0.05 μM) | COCCNC(=O)c1ccc(NCC#Cc2cc3c(NC4CCN(C)CC4)cccc3n2CC(F)(F)F)c(OC)c1 [Compound 497A]
18 | + (+ = 0 μM ≤ SC150 < 0.05 μM) | COc1cc(C(=O)NC2CCN(C)CC2)ccc1NCC#Cc1cc2c(NC3CCN(C)CC3)cccc2n1CC(F)(F)F [Compound 498A]
19 | + (+ = 0 μM ≤ SC150 < 0.05 μM) | COc1cc(C(=O)N2CCC(N(C)C)CC2)ccc1NCC#Cc1cc2c(NC3CCN(C)CC3)cccc2n1CC(F)(F)F [Compound 499A, 2-[3-({4-[4-(dimethylamino)piperidine-1-carbonyl]-2-methoxyphenyl}amino)prop-1-yn-1-yl]-N-(1-methylpiperidin-4-yl)-1-(2,2,2-trifluoroethyl)-1H-indol-4-amine]
20 | + (+ = 0 μM ≤ SC150 < 0.05 μM) | COc1cc(C(=O)NC2CCOCC2)ccc1NCC#Cc1cc2c(NC3CCN(C)CC3)cccc2n1CC(F)(F)F [Compound 500A, 3-methoxy-4-[(3-{4-[(1-methylpiperidin-4-yl)amino]-1-(2,2,2-trifluoroethyl)-1H-indol-2-yl}prop-2-yn-1-yl)amino]-N-(oxan-4-yl)benzamide]
21 | + (+ = 0 μM ≤ SC150 < 0.05 μM) | COc1cc(C(=O)N2CCN(C)CC2)ccc1NCC#Cc1cc2c(NC3CCN(C)CC3)cccc2n1CC(F)(F)F [Compound 501A, 2-(3-{[2-methoxy-4-(4-methylpiperazine-1-carbonyl)phenyl]amino}prop-1-yn-1-yl)-N-(1-methylpiperidin-4-yl)-1-(2,2,2-trifluoroethyl)-1H-indol-4-amine]
22 | + (+ = 0 μM ≤ SC150 < 0.05 μM) | COc1cc(C(=O)N2CC3(COC3)C2)ccc1NCC#Cc1cc2c(NC3CCN(C)CC3)cccc2n1CC(F)(F)F [Compound 502A, 2-{3-[(2-methoxy-4-{2-oxa-6-azaspiro[3.3]heptane-6-carbonyl}phenyl)amino]prop-1-yn-1-yl}-N-(1-methylpiperidin-4-yl)-1-(2,2,2-trifluoroethyl)-1H-indol-4-amine]
23 | ++ (++ = 0.05 μM ≤ SC150 < 0.1 μM) | COc1cc(-c2cccnc2)ccc1NCC#Cc1cc2c(NC3CCN(C)CC3)cccc2n1CC(F)(F)F [Compound 503A, 2-(3-{[2-methoxy-4-(pyridin-3-yl)phenyl]amino}prop-1-yn-1-yl)-N-(1-methylpiperidin-4-yl)-1-(2,2,2-trifluoroethyl)-1H-indol-4-amine]
24 | + (+ = 0 μM ≤ SC150 < 0.05 μM) | COc1cc(-c2ccncc2)ccc1NCC#Cc1cc2c(NC3CCN(C)CC3)cccc2n1CC(F)(F)F [Compound 504A, 2-(3-{[2-methoxy-4-(pyridin-4-yl)phenyl]amino}prop-1-yn-1-yl)-N-(1-methylpiperidin-4-yl)-1-(2,2,2-trifluoroethyl)-1H-indol-4-amine]
25 | +++ (+++ = 0.1 μM ≤ SC150 < 0.2 μM) | CN1CCC(Nc2cccc3c2cc(C#CCNC(=O)c2cccnc2)n3CC(F)(F)F)CC1 [Compound 505A, N-(3-{4-[(1-methylpiperidin-4-yl)amino]-1-(2,2,2-trifluoroethyl)-1H-indol-2-yl}prop-2-yn-1-yl)pyridine-3-carboxamide]
26 | + (+ = 0 μM ≤ SC150 < 0.05 μM) | COc1cc(-c2ncco2)ccc1NCC#Cc1cc2c(NC3CCN(C)CC3)cccc2n1CC(F)(F)F [Compound 506A, 2-(3-{[2-methoxy-4-(1,3-oxazol-2-yl)phenyl]amino}prop-1-yn-1-yl)-N-(1-methylpiperidin-4-yl)-1-(2,2,2-trifluoroethyl)-1H-indol-4-amine]
